Where two headings read alike, the source gives them in different places.
Conditions: Week 16

## CCCN[C@@H]1CCc2nc(N)sc2C1 [Dexpramipexole, (6R)-2-amino-4,5,6,7-tetrahydro-6-(propylamino)benzothiazole]
<50% AEC reduction at Week 16
  Pre-BD FEF25-75 % change from baseline, Max: −3%
  Pre-BD FEF25-75 % change from baseline, Mean ± SD: −14.5 ± 19.68%
  Pre-BD FEF25-75 % change from baseline, Median: −5.5%
  Pre-BD FEF25-75 % change from baseline, Min: −44%
  Pre-BD FEF25-75 % change from baseline, Q1: −25%
  Pre-BD FEF25-75 % change from baseline, Q3: −4%
  Pre-BD FEF25-75 Observed, Max: 780 mL/s
  Pre-BD FEF25-75 Observed, Mean ± SD: 505.0 ± 266.15 mL/s
  Pre-BD FEF25-75 Observed, Median: 505.0 mL/s
  Pre-BD FEF25-75 Observed, Min: 230 mL/s
  Pre-BD FEF25-75 Observed, Q1: 280 mL/s
  Pre-BD FEF25-75 Observed, Q3: 730 mL/s
  Pre-BD FEF25-75 change from baseline, Max: -10 mL/s
  Pre-BD FEF25-75 change from baseline, Mean ± SD: -170.0 ± 293.94 mL/s
  Pre-BD FEF25-75 change from baseline, Median: -30.0 mL/s
  Pre-BD FEF25-75 change from baseline, Min: -610 mL/s
  Pre-BD FEF25-75 change from baseline, Q1: -330 mL/s
  Pre-BD FEF25-75 change from baseline, Q3: -10 mL/s
  Pre-BD FEV1 % change from baseline, Max: 3%
  Pre-BD FEV1 % change from baseline, Mean ± SD: −11.4 ± 15.14%
  Pre-BD FEV1 % change from baseline, Median: −8.5%
  Pre-BD FEV1 % change from baseline, Min: −32%
  Pre-BD FEV1 % change from baseline, Q1: −22%
  Pre-BD FEV1 % change from baseline, Q3: 0%
  Pre-BD FEV1 Observed, Max: 1660 mL
  Pre-BD FEV1 Observed, Mean ± SD: 1280.0 ± 399.67 mL
  Pre-BD FEV1 Observed, Median: 1370.0 mL
  Pre-BD FEV1 Observed, Min: 720 mL
  Pre-BD FEV1 Observed, Q1: 1020 mL
  Pre-BD FEV1 Observed, Q3: 1540 mL
  Pre-BD FEV1 change from baseline, Max: 50 mL
  Pre-BD FEV1 change from baseline, Mean ± SD: -192.5 ± 318.58 mL
  Pre-BD FEV1 change from baseline, Median: -80.0 mL
  Pre-BD FEV1 change from baseline, Min: -660 mL
  Pre-BD FEV1 change from baseline, Q1: -385 mL
  Pre-BD FEV1 change from baseline, Q3: 0 mL
  Pre-BD FVC % change from baseline, Max: 3%
  Pre-BD FVC % change from baseline, Mean ± SD: −3.2 ± 7.22%
  Pre-BD FVC % change from baseline, Median: −2.0%
  Pre-BD FVC % change from baseline, Min: −12%
  Pre-BD FVC % change from baseline, Q1: −9%
  Pre-BD FVC % change from baseline, Q3: 3%
  Pre-BD FVC Observed, Max: 3380 mL
  Pre-BD FVC Observed, Mean ± SD: 2900.0 ± 503.26 mL
  Pre-BD FVC Observed, Median: 2985.0 mL
  Pre-BD FVC Observed, Min: 2250 mL
  Pre-BD FVC Observed, Q1: 2510 mL
  Pre-BD FVC Observed, Q3: 3290 mL
  Pre-BD FVC change from baseline, Max: 80 mL
  Pre-BD FVC change from baseline, Mean ± SD: -95.0 ± 203.55 mL
  Pre-BD FVC change from baseline, Median: -80.0 mL
  Pre-BD FVC change from baseline, Min: -300 mL
  Pre-BD FVC change from baseline, Q1: -270 mL
  Pre-BD FVC change from baseline, Q3: 80 mL
  Pre-BD Peak Flow % change from baseline, Max: 930%
  Pre-BD Peak Flow % change from baseline, Mean ± SD: 236.0 ± 462.72%
  Pre-BD Peak Flow % change from baseline, Median: 8.1%
  Pre-BD Peak Flow % change from baseline, Min: −2%
  Pre-BD Peak Flow % change from baseline, Q1: 1%
  Pre-BD Peak Flow % change from baseline, Q3: 471%
  Pre-BD Peak Flow Observed, Max: 412 L/min
  Pre-BD Peak Flow Observed, Mean ± SD: 258.0 ± 118.14 L/min
  Pre-BD Peak Flow Observed, Median: 248.0 L/min
  Pre-BD Peak Flow Observed, Min: 124 L/min
  Pre-BD Peak Flow Observed, Q1: 186 L/min
  Pre-BD Peak Flow Observed, Q3: 331 L/min
  Pre-BD Peak Flow change from baseline, Max: 372 L/min
  Pre-BD Peak Flow change from baseline, Mean ± SD: 101.5 ± 180.70 L/min
  Pre-BD Peak Flow change from baseline, Median: 18.5 L/min
  Pre-BD Peak Flow change from baseline, Min: -3 L/min
  Pre-BD Peak Flow change from baseline, Q1: 5 L/min
  Pre-BD Peak Flow change from baseline, Q3: 199 L/min
>=50% AEC reduction at Week 16
  Pre-BD FEF25-75 % change from baseline, Max: 27%
  Pre-BD FEF25-75 % change from baseline, Mean ± SD: 13.6 ± 13.59%
  Pre-BD FEF25-75 % change from baseline, Median: 13.7%
  Pre-BD FEF25-75 % change from baseline, Min: 0%
  Pre-BD FEF25-75 % change from baseline, Q1: 0%
  Pre-BD FEF25-75 % change from baseline, Q3: 27%
  Pre-BD FEF25-75 Observed, Max: 1170 mL/s
  Pre-BD FEF25-75 Observed, Mean ± SD: 736.7 ± 486.76 mL/s
  Pre-BD FEF25-75 Observed, Median: 830.0 mL/s
  Pre-BD FEF25-75 Observed, Min: 210 mL/s
  Pre-BD FEF25-75 Observed, Q1: 210 mL/s
  Pre-BD FEF25-75 Observed, Q3: 1170 mL/s
  Pre-BD FEF25-75 change from baseline, Max: 250 mL/s
  Pre-BD FEF25-75 change from baseline, Mean ± SD: 116.7 ± 125.83 mL/s
  Pre-BD FEF25-75 change from baseline, Median: 100.0 mL/s
  Pre-BD FEF25-75 change from baseline, Min: 0 mL/s
  Pre-BD FEF25-75 change from baseline, Q1: 0 mL/s
  Pre-BD FEF25-75 change from baseline, Q3: 250 mL/s
  Pre-BD FEV1 % change from baseline, Max: 52%
  Pre-BD FEV1 % change from baseline, Mean ± SD: 22.5 ± 25.80%
  Pre-BD FEV1 % change from baseline, Median: 8.3%
  Pre-BD FEV1 % change from baseline, Min: 7%
  Pre-BD FEV1 % change from baseline, Q1: 7%
  Pre-BD FEV1 % change from baseline, Q3: 52%
  Pre-BD FEV1 Observed, Max: 1980 mL
  Pre-BD FEV1 Observed, Mean ± SD: 1523.3 ± 657.29 mL
  Pre-BD FEV1 Observed, Median: 1820.0 mL
  Pre-BD FEV1 Observed, Min: 770 mL
  Pre-BD FEV1 Observed, Q1: 770 mL
  Pre-BD FEV1 Observed, Q3: 1980 mL
  Pre-BD FEV1 change from baseline, Max: 680 mL
  Pre-BD FEV1 change from baseline, Mean ± SD: 290.0 ± 340.73 mL
  Pre-BD FEV1 change from baseline, Median: 140.0 mL
  Pre-BD FEV1 change from baseline, Min: 50 mL
  Pre-BD FEV1 change from baseline, Q1: 50 mL
  Pre-BD FEV1 change from baseline, Q3: 680 mL
  Pre-BD FVC % change from baseline, Max: 29%
  Pre-BD FVC % change from baseline, Mean ± SD: 13.7 ± 13.73%
  Pre-BD FVC % change from baseline, Median: 10.0%
  Pre-BD FVC % change from baseline, Min: 2%
  Pre-BD FVC % change from baseline, Q1: 2%
  Pre-BD FVC % change from baseline, Q3: 29%
  Pre-BD FVC Observed, Max: 3250 mL
  Pre-BD FVC Observed, Mean ± SD: 2743.3 ± 470.57 mL
  Pre-BD FVC Observed, Median: 2660.0 mL
  Pre-BD FVC Observed, Min: 2320 mL
  Pre-BD FVC Observed, Q1: 2320 mL
  Pre-BD FVC Observed, Q3: 3250 mL
  Pre-BD FVC change from baseline, Max: 730 mL
  Pre-BD FVC change from baseline, Mean ± SD: 333.3 ± 351.62 mL
  Pre-BD FVC change from baseline, Median: 210.0 mL
  Pre-BD FVC change from baseline, Min: 60 mL
  Pre-BD FVC change from baseline, Q1: 60 mL
  Pre-BD FVC change from baseline, Q3: 730 mL
  Pre-BD Peak Flow % change from baseline, Max: 115%
  Pre-BD Peak Flow % change from baseline, Mean ± SD: 50.4 ± 56.32%
  Pre-BD Peak Flow % change from baseline, Median: 21.5%
  Pre-BD Peak Flow % change from baseline, Min: 14%
  Pre-BD Peak Flow % change from baseline, Q1: 14%
  Pre-BD Peak Flow % change from baseline, Q3: 115%
  Pre-BD Peak Flow Observed, Max: 338 L/min
  Pre-BD Peak Flow Observed, Mean ± SD: 240.0 ± 88.20 L/min
  Pre-BD Peak Flow Observed, Median: 215.0 L/min
  Pre-BD Peak Flow Observed, Min: 167 L/min
  Pre-BD Peak Flow Observed, Q1: 167 L/min
  Pre-BD Peak Flow Observed, Q3: 338 L/min
  Pre-BD Peak Flow change from baseline, Max: 181 L/min
  Pre-BD Peak Flow change from baseline, Mean ± SD: 80.0 ± 87.88 L/min
  Pre-BD Peak Flow change from baseline, Median: 38.0 L/min
  Pre-BD Peak Flow change from baseline, Min: 21 L/min
  Pre-BD Peak Flow change from baseline, Q1: 21 L/min
  Pre-BD Peak Flow change from baseline, Q3: 181 L/min

Source: US20250352520A1, “USE OF DEXPRAMIPEXOLE FOR THE TREATMENT OF EOSINOPHILIC COPD” (Areteia Therapeutics, Inc., priority 2024, published 2025)
